Assay results: publication PMC6376265, “A sequence conserved between CD5 and CD6 binds an FERM domain and exerts a restraint on T‐cell activation” (Immunology, 2018)
Like-named read-outs stand apart in the source and are kept apart here. Square brackets hold non-standard residues; d marks the D form. Ends that are not written are not given here. Peptide text beside a SMILES is read from it. * marks the point of attachment. Biotin = O=C1N[C@H]2[C@H](CS[C@H]2CCCCC(=O)*)N1; pY = N[C@@H](Cc1ccc(OP(=O)(O)O)cc1)C(=O)O; pS = N[C@@H](COP(=O)(O)O)C(=O)O

Key:
radixin FERM domain = molecular target: T1, radixin FERM domain (Mus musculus, UniProt P26043); test: Surface plasmon resonance, radixin FERM domain injected over immobilized peptides; format: binding; conditions: 37°; for Kd: equilibrium binding; for Binding of radixin FERM domain (in words): non-phosphorylated peptides, Fig. 1a, b
T1 construct: mouse cDNA encoding amino acid residues 1–310, which are 100% identical between mouse and human; GST (cleaved yes); made in house; host or cells: E. coli Rosetta (DE3) pLysS
T1 sequence (P26043 1-310): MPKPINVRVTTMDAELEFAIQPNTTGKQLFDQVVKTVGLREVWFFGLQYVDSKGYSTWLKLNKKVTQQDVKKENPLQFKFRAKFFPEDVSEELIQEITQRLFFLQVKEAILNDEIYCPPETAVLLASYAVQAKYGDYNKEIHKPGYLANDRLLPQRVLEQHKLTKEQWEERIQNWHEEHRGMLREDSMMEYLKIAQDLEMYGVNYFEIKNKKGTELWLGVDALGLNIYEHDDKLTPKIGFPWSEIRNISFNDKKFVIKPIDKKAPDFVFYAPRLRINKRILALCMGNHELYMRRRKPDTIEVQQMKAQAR
Text: (§1) Peptides representing human sequences and biotinylated at the N terminus were obtained from Peptide Protein Research Ltd (Hampshire, UK): CD5 pSDpSDpY, PDNSpSDpSDpYDLHGAQRL; CD5 SDSDY, PDNSSDSDYDLHGAQRL, CD6 pSDpSDpY, GpSDpSDpYEHYDFSAQ; CD6 SDSDY: GSDSDYEHYDFSAQ; control peptide (CD5), HVDNEYSQPPRNS; ICAM‐2 (NP_001093259 FERM binding site (amino acids 251–275): […].16
Recombinant GST‐tagged FERM domain of radixin constructed from mouse cDNA encoding amino acid residues 1–310, which are 100% identical between mouse and human in the pET49b(+) vector was kindly provided by Toshio Hakoshima (Nara Institute of Science and Technology, Japan).16 Radixin FERM was expressed in Rosetta (DE3) pLysS competent cells (Novagen, Madison, WI) and affinity purified using Glutathione Sepharose 4B (GE Healthcare, Chicago, IL). The GST tag was cleaved with HRV 3C protease (Novagen). Cleaved radixin FERM domains were then further purified using size exclusion chromatography.
For surface plasmon resonance analysis, CD5 pSDpSDpY, CD5 SDSDY, CD6 pSDpSDpY and CD6 SDSDY and ICAM‐2 peptides were immobilized on streptavidin‐coated CM5 chips in a BIAcore 3000 machine. Radixin FERM was injected over the immobilized peptides at 37°. Background signals of radixin FERM over a streptavidin‐coated flow cell were subtracted and equilibrium binding data were fitted using a 1 : 1 Langmuir binding model using GRAPHPAD PRISM 7 software.

[1] = test system: ERM proteins and NHE‐RF 1 and 2; test: Pulldown from Jurkat T-cell lysates with immobilized peptides and mass spectrometry: five ERM and NHE-RF proteins together; format: binding
Text: as §1
Pulldowns and mass spectrometry have been described elsewhere.6 Briefly, peptides CD5 pSDpSDpY, CD6 pSDpSDpY or a control peptide derived from a region around a more proximal cytoplasmic tyrosine of CD5 were immobilized on magnetic beads and used to isolate interacting proteins from Jurkat T‐cell lysates. Interacting proteins were processed, then digested on a filter, and the peptides were loaded onto the Ultimate 300 RSLCnano high‐performance liquid chromatography (Dionex, Sunnyvale, CA) ‐tandem mass spectrometry Q Exactive Orbitrap machine using a 25 cm by 75 μm inner diameter picotip analytical column (New Objective, Woburn, MA) in the central proteomics facilities at the Sir William Dunn School of Pathology, University of Oxford. Spectra analysis was conducted using the MASCOT search engine.17

[2] = molecular target: T2, radixin FERM domain (amino acid residues 1-310) (mouse, UniProt P26043 1-310); test: SPR; biotinylated peptides immobilized on streptavidin-coated CM5 chips, BIAcore 3000; radixin FERM injected at 37°; streptavidin flow cell subtracted; equilibrium binding fitted with a 1:1 Langmuir model; conditions: both partners purified
T2 construct: also called Recombinant monomeric radixin FERM; FERM domain of radixin; source: E. coli Rosetta (DE3) pLysS, purified (Glutathione Sepharose 4B, HRV 3C cleavage, size exclusion chromatography)
T2 sequence (P26043 1-310): as above

[3] = SPR BIAcore 3000, biotinylated peptides on streptavidin-coated CM5 chip, 1:1 Langmuir fit, CD5 and CD6: three experiments, read-out: KD

With CC(C)C[C@H](NC(=O)[C@H](CCCNC(=N)N)NC(=O)[C@H](CCC(N)=O)NC(=O)[C@H](C)NC(=O)CNC(=O)[C@H](Cc1c[nH]cn1)NC(=O)[C@H](CC(C)C)NC(=O)[C@H](CC(=O)O)NC(=O)[C@H](Cc1ccc(OP(=O)(O)O)cc1)NC(=O)[C@H](CC(=O)O)NC(=O)[C@H](COP(=O)(O)O)NC(=O)[C@H](CC(=O)O)NC(=O)[C@H](COP(=O)(O)O)NC(=O)[C@H](CO)NC(=O)[C@H](CC(N)=O)NC(=O)[C@H](CC(=O)O)NC(=O)[C@@H]1CCCN1)C(=O)O [CD5 pSDpSDpY] (H-PDNS[pS]D[pS]D[pY]DLHGAQRL-OH) the Kd (radixin FERM domain; [3]) was 1000 to 2000 nM and the Kd (radixin FERM domain; SPR, Fig. 1 panel c, peptides compared with ICAM-2, read-out: KD (Fig. 1c)) was 1000 nM.

With C[C@H](NC(=O)[C@H](CO)NC(=O)[C@H](Cc1ccccc1)NC(=O)[C@H](CC(=O)O)NC(=O)[C@H](Cc1ccc(O)cc1)NC(=O)[C@H](Cc1c[nH]cn1)NC(=O)[C@H](CCC(=O)O)NC(=O)[C@H](Cc1ccc(OP(=O)(O)O)cc1)NC(=O)[C@H](CC(=O)O)NC(=O)[C@H](COP(=O)(O)O)NC(=O)[C@H](CC(=O)O)NC(=O)[C@H](COP(=O)(O)O)NC(=O)CN)C(=O)N[C@@H](CCC(N)=O)C(=O)O [CD6 pSDpSDpY] (H-G[pS]D[pS]D[pY]EHYDFSAQ-OH) the Kd (radixin FERM domain; [3]) was 500 nM.

CSCC[C@H](NC(=O)[C@H](CCCNC(=N)N)NC(=O)[C@H](CCC(N)=O)NC(=O)[C@H](CCC(N)=O)NC(=O)[C@H](CCCNC(=N)N)NC(=O)[C@H](CC(C)C)NC(=O)[C@H](Cc1c[nH]cn1)NC(=O)CCCC[C@@H]1SC[C@@H]2NC(=O)N[C@@H]21)C(=O)NCC(=O)N[C@H](C(=O)N[C@@H](Cc1ccc(O)cc1)C(=O)NCC(=O)N[C@H](C(=O)N[C@@H](CCCNC(=N)N)C(=O)N[C@@H](C)C(=O)N[C@@H](C)C(=O)N[C@@H](Cc1c[nH]c2ccccc12)C(=O)N[C@@H](CCCNC(=N)N)C(=O)N[C@@H](CCCNC(=N)N)C(=O)N[C@@H](CC(C)C)C(=O)N1CCC[C@H]1C(=O)N[C@@H](CCC(N)=O)C(=O)N[C@@H](C)C(=O)N[C@@H](Cc1ccccc1)C(=O)N[C@@H](CCCNC(=N)N)C(=O)N1CCC[C@H]1C(=O)O)C(C)C)[C@@H](C)O [ICAM-2, reference compound] (Biotin-HLRQQRMGTYGVRAAWRRLPQAFRP-OH; N-terminus and C-terminus assumed) gave a Kd (radixin FERM domain; [3]) of no less than 200 nM.

With GSDSDYEHYDFSAQ [CD6 SDSDY] the “Binding of radixin FERM domain (in words)” value (radixin FERM domain; SPR) was “weak and did not reach saturation”.

With “HVDNEYSQPPRNS [control peptide, control peptide derived from a region around a more proximal cytoplasmic tyrosine of CD5]” the “Isolation of the five proteins (in words)” value [1] was “not identified”.

In the case of PDNSSDSDYDLHGAQRL [CD5 SDSDY], the “Binding of radixin FERM domain (in words)” value (radixin FERM domain; SPR) is reported as “weak and did not reach saturation”.

B1: CD6 pSDpSDpY peptide (peptide)
peptide: Biotin-G[pS]D[pS]D[pY]EHYDFSAQ
notes: also called phosphorylated CD6 SDSDY peptide; source: synthetic peptide; bought: Peptide Protein Research Ltd
B1 gave a Kd [2] of 500 to 2000 nM.
